{"source": "patent US20050020668A1", "about": "“Combination comprising S-[2-([[1-(2-ethylbutyl)cyclohexyl] carbonyl]amino)phenyl] 2-methylpropanethioate and an HMG CoA reductase inhibitor” (Japan Tobacco Inc., priority 2003, published 2005)", "key": {"[1]": {"system": "male Japanese white rabbits receiving a high-cholesterol diet", "test": "Atherogenic index in rabbits receiving a high-cholesterol diet", "format": "in vivo, rabbit", "settings": "control group = 100%, in 0.2% cholesterol diet for 7 days: Compound I 0.5%", "experimental": "Prior to commencement of the study, male Japanese white rabbits (KITAYAMA LABES Co., Ltd.) received a normal diet (RC-4, manufactured by Oriental Bio-Service Inc.) (Time Period 1) and water ad libitum. For preliminary feeding, male Japanese white rabbits were provided with a high cholesterol diet comprising 100 g/day per rabbit of RC-4 containing 0.2% cholesterol (manufactured by Oriental Bio-Service Inc.) for 4 weeks (Time Period 2). […] For 7 days (Time Period 3), each group was administered a high cholesterol diet comprising 100 g/day per rabbit of RC-4 containing 0.2% cholesterol and one of the following: • (1) Control (no additional components) • (2) Compound I (0.5%) • (3) Simvastatin (extracted and purified from LipovasTM Tablets-5, Banyu Pharmaceutical Co.) (0.075%) • (4) Atorvastatin calcium trihydrate (extracted and purified from LipitorTM Tablets-10, Pfizer Inc.) (0.075%) • (5) Rosuvastatin calcium (extracted and purified from CrestorTM Tablets, Astra Zeneca) (0.025%) • (6) Compound I (0.5%)+simvastatin (0.075%) • (7) Compound I (0.5%)+atorvastatin calcium trihydrate (0.075%) • (8) Compound I (0.5%)+rosuvastatin calcium (0.025%) […] Atherogenic index was calculated as follows: [(total cholesterol content-HDL cholesterol content)/HDL cholesterol content]. […] A similar experiment was conducted to evaluate the effect of the administration of Compound I and pravastatin sodium ([…] Ltd.) on 12-week old male Japanese white rabbits receiving a high-cholesterol diet."}, "CETP": {"target": "T1, CETP (Homo sapiens, UniProt P11597)", "T1 construct": "from tissue; host or cells: blood (plasma) samples of hyperlipidemic patients", "T1 sequence (P11597 18-493)": "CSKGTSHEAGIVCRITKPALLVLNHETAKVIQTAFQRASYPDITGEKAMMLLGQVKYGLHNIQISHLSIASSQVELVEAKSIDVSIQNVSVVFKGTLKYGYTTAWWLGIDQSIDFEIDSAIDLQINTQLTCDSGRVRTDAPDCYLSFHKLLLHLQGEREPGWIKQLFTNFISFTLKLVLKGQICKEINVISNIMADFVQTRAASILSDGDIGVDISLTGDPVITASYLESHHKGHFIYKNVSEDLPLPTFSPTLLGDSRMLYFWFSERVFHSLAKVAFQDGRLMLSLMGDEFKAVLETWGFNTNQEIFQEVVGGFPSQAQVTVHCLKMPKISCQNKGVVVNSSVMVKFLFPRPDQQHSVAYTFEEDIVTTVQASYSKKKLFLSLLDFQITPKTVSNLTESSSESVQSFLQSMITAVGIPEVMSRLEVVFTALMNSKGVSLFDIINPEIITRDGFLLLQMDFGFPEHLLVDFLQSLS", "test": "Clinical study: Compound I added to pravastatin sodium therapy, CETP activity in blood samples", "format": "in vivo", "settings": "for Mean percent change of CETP activity from levels before administration of Compound I: Visit 5 or 6 vs average of Visits 3 and 4, per protocol; for Decrease in CETP activity relative to levels achieved by pravastatin sodium alone: patients receiving pravastatin sodium therapy", "experimental": "CETP activity is measured essentially as described in Tollefson et al., Methods Enzymol., 129, 797-816 (1986), and Kato et al., J. Biol. Chem., 264, 4082-4087 (1989). Preferably, the CETP activity at 2 weeks (or 4 weeks, 8 weeks, 12 weeks, or six months) post-treatment initiation is decreased by about 5% or more relative to CETP activity pretreatment (e.g., about 7.5% or more, about 10% or more, about 15% or more, about 20% or more, about 25% or more, about 30% or more, about 35% or more, about 40% or more, about 45% or more, about 50% or more, about 55% or more, about 60% or more, or about 65% or more).\n(§1) This example describes a multi-center, randomized, double-blind, placebo-controlled, parallel group study designed to evaluate the therapeutic effect of the combination of S-[2-([[1-(2-ethylbutyl)cyclohexyl]carbonyl]amino)phenyl]2-methylpropanethioate (Compound I) and pravastatin sodium in patients with hyperlipidemia.\n(§2) The total study duration was 16 weeks, which consisted of three periods. During Period 1, the first 8 weeks of the study, 40 mg of pravastatin sodium was taken once daily at bedtime by all enrolled patients. Patients were then randomized to receive placebo or 300 mg or 600 mg of Compound I once daily following breakfast for Period 2, the next 4-week period, in addition to the continued pravastatin sodium treatment. During Period 3, the last 4 weeks of the study, pravastatin sodium was administered alone.\nBlood samples were taken at Visit 1 (−10 weeks relative to commencement of treatment with Compound I or placebo) to determine eligibility, and at Visit 2 (−8 weeks; commencement of treatment with pravastatin sodium), Visit 3 (−2 weeks), Visit 4 (commencement of treatment with Compound I or placebo), Visit 5 (+2 weeks after commencement of treatment with Compound I or placebo), Visit 6 (+4 weeks; end of treatment with Compound I or placebo), and Visit 7 (+8 weeks; end of treatment with pravastatin sodium). Each blood sample was tested for levels of lipid parameters (e.g., total cholesterol, triglycerides, HDL-C, LDL-C), CETP activity and mass, the plasma concentration of Compound I (trough level), as well as laboratory safety parameters (e.g., urinalysis, biochemistry, and hematology). […]\nTable 2 describes the percent change in HDL-C, LDL-C, TC/HDL-C ratio, LDL-C/HDL-C ratio, and CETP activity from the values of patients receiving pravastatin sodium therapy (average of Visit 3 and 4 values) to the values following administration of Compound I or placebo and pravastatin sodium (Visit 5 or 6). P values were determined by comparing the groups administered Compound I to the placebo group using an ANOVA model with percent change as the dependent variable and treatment and center as the fixed effects. […]"}, "[2]": {"system": "patients with type II hyperlipidemia", "test": "Clinical study: Compound I added to pravastatin sodium therapy, lipid parameters", "format": "in vivo, human", "settings": "for Mean percent change of HDL-C from levels before administration of Compound I / Mean percent change of LDL-C from levels before administration of Compound I / Mean percent change of LDL-C/HDL-C ratio from levels before administration of Compound I / Mean percent change of TC/HDL-C ratio from levels before administration of Compound I: Visit 5 or 6 vs average of Visits 3 and 4, per protocol", "from_the_text": "as §1\nApproximately 200 patients with type II hyperlipidemia were enrolled in the study to ensure that about 150 patients (about 50 patients per treatment group) completed the study. The patients met the following criteria: • (i) LDL-C>4.0 mmol/L (160 mg/dL), • (ii) HDL-C<1.6 mmol/L (60 mg/dL), • (iii) triglycerides<4.5 mmol/L (400 mg/dL), and • (iv) age 18-65 years.\nas §2\nEach pravastatin sodium tablet comprised 40 mg of pravastatin sodium that was provided as a branded commercial product (Selektine™, Bristol-Myers Squibb B.V.). Each Compound I tablet contained 300 mg of Compound I and was supplied as a white oval tablet that is identical in appearance to the placebo tablet. The uncoated white tablets comprising Compound I were prepared using standard tableting procedures. The tablets comprised 300 mg of Compound I, 18 mg of hydroxypropylmethyl cellulose 2910 as a binder, 18 mg of talc and 1.2 mg of magnesium stearate as lubricants, and 119.8 mg of crospovidone and 90 mg of low-substituted hydroxypropyl cellulose as disintegrants.\nAll patients received 2 uncoated white tablets, such that each patient received either (a) one 300 mg Compound I tablet and one placebo tablet, (b) two 300 mg Compound I tablets, or (c) two placebo tablets during Period 2.\nBlood samples were taken at Visit 1 (−10 weeks relative to commencement of treatment with Compound I or placebo) to determine eligibility, and at Visit 2 (−8 weeks; commencement of treatment with pravastatin sodium), Visit 3 (−2 weeks), Visit 4 (commencement of treatment with Compound I or placebo), Visit 5 (+2 weeks after commencement of treatment with Compound I or placebo), Visit 6 (+4 weeks; end of treatment with Compound I or placebo), and Visit 7 (+8 weeks; end of treatment with pravastatin sodium). Each blood sample was tested for levels of lipid parameters (e.g., total cholesterol, triglycerides, HDL-C, LDL-C), CETP activity and mass, the plasma concentration of Compound I (trough level), as well as laboratory safety parameters (e.g., urinalysis, biochemistry, and hematology).\nEfficacy analyses included both descriptive summary and statistical modeling, such as analysis of variance (ANOVA) or analysis of covariance (ANCOVA). The descriptive summary included frequencies and percentages for categorical variables and statistics such as the number of available observations, mean, median, standard deviation, minimum, and maximum for all variables.\nTo determine the effect of the administration of Compound I on a patient receiving HMG CoA reductase inhibitor therapy, the mean values of HDL-C, LDL-C, TC/HDL-C ratio, LDL-C/HDL-C ratio, and CETP activity before administration of Compound I (average of values at Visits 3 and 4) and after the administration of Compound I (Visit 5 or 6) were compared. An ANOVA model containing treatment and center effects was used. […]"}, "[3]": {"settings": "Table 3 experiment, simvastatin 0.075%, atorvastatin calcium trihydrate 0.075%, rosuvastatin calcium 0.025%, blood 8 hours after feeding on Day 7"}, "[4]": {"settings": "Table 4 experiment, pravastatin sodium 0.075%"}, "[5]": {"settings": "300 mg Compound I once daily + 40 mg pravastatin sodium, n = 45"}, "[6]": {"settings": "600 mg Compound I once daily + 40 mg pravastatin sodium, n = 42"}, "[7]": {"settings": "300 mg treatment group, patients receiving pravastatin sodium therapy"}, "[8]": {"settings": "600 mg treatment group, patients receiving pravastatin sodium therapy"}}, "note": "Marks after values point to notes of the source that are not given here.", "data": [{"smiles": "CC(C)c1c(C(=O)Nc2ccccc2)c(-c2ccccc2)c(-c2ccc(F)cc2)n1CC[C@@H](O)C[C@@H](O)CC(=O)O", "note": "[Atorvastatin calcium trihydrate]", "values": [{"measurement": "Atherogenic Index (%)", "setting": "[1]; [3]", "value": 49, "unit": "%"}]}, {"smiles": "CCC(CC)CC1(C(=O)Nc2ccccc2SC(=O)C(C)C)CCCCC1", "note": "[Compound I, S-[2-([[1-(2-ethylbutyl)cyclohexyl]carbonyl]amino)phenyl]2-methylpropanethioate]", "values": [{"measurement": "Atherogenic Index (%)", "setting": "[1]; [3]", "value": 54, "unit": "%"}, {"measurement": "Atherogenic Index (%)", "setting": "[1]; [4]", "value": 60, "unit": "%"}, {"measurement": "Mean percent change of CETP activity from levels before administration of Compound I", "setting": "CETP; [5]", "value": "−18.10* %"}, {"measurement": "Decrease in CETP activity relative to levels achieved by pravastatin sodium alone", "setting": "CETP; 300 mg treatment group", "value": "about 18%"}, {"measurement": "Mean percent change of CETP activity from levels before administration of Compound I", "setting": "CETP; [6]", "value": "−31.62* %"}, {"measurement": "Decrease in CETP activity relative to levels achieved by pravastatin sodium alone", "setting": "CETP; 600 mg treatment group", "value": "about 32%"}, {"measurement": "Mean percent change of HDL-C from levels before administration of Compound I", "setting": "[2]; [5]", "value": "12.96* %"}, {"measurement": "Mean percent change of LDL-C from levels before administration of Compound I", "setting": "[2]; [5]", "value": 1.57, "unit": "%"}, {"measurement": "Mean percent change of LDL-C/HDL-C ratio from levels before administration of Compound I", "setting": "[2]; [5]", "value": "−10.31^† %"}, {"measurement": "Mean percent change of TC/HDL-C ratio from levels before administration of Compound I", "setting": "[2]; [5]", "value": "−8.09^† %"}, {"measurement": "Decrease in LDL-C/HDL-C ratio relative to levels achieved by pravastatin sodium alone", "setting": "[2]; [7]", "value": "about 10%"}, {"measurement": "Decrease in TC/HDL-C ratio relative to levels achieved by pravastatin sodium alone", "setting": "[2]; [7]", "value": "about 8%"}, {"measurement": "Increase in HDL-C levels relative to levels achieved by pravastatin sodium alone", "setting": "[2]; [7]", "value": "about 13%"}, {"measurement": "Mean percent change of HDL-C from levels before administration of Compound I", "setting": "[2]; [6]", "value": "28.43* %"}, {"measurement": "Mean percent change of LDL-C from levels before administration of Compound I", "setting": "[2]; [6]", "value": "−7.91^‡ %"}, {"measurement": "Mean percent change of LDL-C/HDL-C ratio from levels before administration of Compound I", "setting": "[2]; [6]", "value": "−26.03* %"}, {"measurement": "Mean percent change of TC/HDL-C ratio from levels before administration of Compound I", "setting": "[2]; [6]", "value": "−18.72* %"}, {"measurement": "Decrease in LDL-C levels relative to level achieved by pravastatin sodium alone", "setting": "[2]; [8]", "value": "about 8%"}, {"measurement": "Decrease in LDL-C/HDL-C ratio relative to levels achieved by pravastatin sodium alone", "setting": "[2]; [8]", "value": "about 26%"}, {"measurement": "Decrease in TC/HDL-C ratio relative to levels achieved by pravastatin sodium alone", "setting": "[2]; [8]", "value": "about 19%"}, {"measurement": "Increase in HDL-C levels relative to levels achieved by pravastatin sodium alone", "setting": "[2]; [8]", "value": "about 28%"}]}, {"smiles": "CC(C)c1nc(N(C)S(C)(=O)=O)nc(-c2ccc(F)cc2)c1/C=C/[C@@H](O)C[C@@H](O)CC(=O)[O-].CC(C)c1nc(N(C)S(C)(=O)=O)nc(-c2ccc(F)cc2)c1/C=C/[C@@H](O)C[C@@H](O)CC(=O)[O-].[Ca+2]", "note": "[Rosuvastatin calcium]", "values": [{"measurement": "Atherogenic Index (%)", "setting": "[1]; [3]", "value": 81, "unit": "%"}]}, {"smiles": "CCC(C)(C)C(=O)O[C@H]1C[C@@H](C)C=C2C=C[C@H](C)[C@H](CC[C@@H]3C[C@@H](O)CC(=O)O3)[C@H]21", "note": "[Simvastatin]", "values": [{"measurement": "Atherogenic Index (%)", "setting": "[1]; [3]", "value": 51, "unit": "%"}]}, {"smiles": "CC[C@H](C)C(=O)O[C@H]1C[C@H](O)C=C2C=C[C@H](C)[C@H](CC[C@@H](O)C[C@@H](O)CC(=O)O)[C@H]21", "note": "[Pravastatin sodium]", "values": [{"measurement": "Atherogenic Index (%)", "setting": "[1]; [4]", "value": 40, "unit": "%"}]}]}
